Test results as given in patent US5164391A, “Hydantoin derivatives for treating complications of diabetes and circulatory diseases” (priority 1989, dated 1992).
Read-outs that look alike come from different tables or passages of the source.

How the values were obtained:
right atrium = assay: Action to heart of guinea pig: right atrium (pulsations); design: species or system Hartley guinea pigs; conditions: for inhibition at 10 µM / inhibition at 100 µM: Cavia porcellus, read-out: Pulsation;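 for Pulsation: Dash means no recognizable influence on pulsation rate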
Protocol: (§1) Hartley guinea pigs (body weight of 300-400 g) were rendered unconscious by knocking their head and fixed upwardly to exenterate their heart. […] The vessel was previously filled with the Krebs-Henseleit solution and the said mixed gas was continuously fed therein.
(§2) Samples were prepared by separating from a ventricular muscle a right and left atrium, along an auricloventricular furrow or groove from the center-line of the right and left auricles.
A contraction of the sample, due to a compound to be tested, was recorded through an FD pick-up. Concurrently, pulsations were input to a measuring unit to count and record number of the pulsations.

thoracic aorta = assay: Action to the aorta of guinea pig (relaxation of contracted spiral samples); design: species or system Hartley guinea pigs; conditions: Cavia porcellus
Source text: Hartley guinea pigs (body weight of 300-500 g) were rendered unconscious fainted by knocking their head and fixed upwardly. A thoracic aorta was taken out to prepare spiral samples, each having size of about 2×25 mm. The sample was suspended in a Magnus tube under a load of about 1 g and upper end of the sample was connected through a silk thread to a FD pick-up to record a change in isometric tension.
Composition of Krebs-Henseleit solution:
Prior to the experiment, the sample in the Magnus tube was left to stand, as it was, for 60 to 90 minutes and in such period of time, the Krebs-Henseleit solution was exchanged to fresh one at an interval of 20 to 30 minutes.
When the contraction of the sample became constant, the compound to be tested was gradually added in a amount starting at a concentration of 10^-8, to […] to observe the contraction of the sample. Finally, papaverine was added therein, so as to make its final concentration of 2×10^-5 g/ml, to check and record also the relaxing reaction or atony caused by the papaverine.

left atrium = assay: Action to heart of guinea pig: left atrium (contraction power); design: species or system Hartley guinea pigs
Protocol: as §1, §2
The atrium was driven by contacting it with a platinum bipolar electrode attached to the cellfin and by stimulating the same with a rectangular pulse (1 Hz, 1 msec, 10 V). A movement of the sample was recorded by connecting the sample to a recorder through a silk thread and a FD pick-up.

aldose reductase = aldose reductase (Rattus norvegicus, UniProt P07943); assay: Inhibition to aldose reductase (method of Kador et al); assay type: biochemical; conditions: read-out: IC50 (50% Inhibitory Concentration)
Source text: An ability for reducing or inhibiting activity of aldose reductase was checked, in accordance with the method of Kador et al as described in "Biophys.

platelet = assay: Inhibition of platelet agglutination (rat PRP); assay type: cell-based
Protocol: A blood was taken from a descending aorta of the rat anesthetized with ethyl ether. To the blood, 3.8% aqueous sodium citrate was added by a volume of 1/3 and the resulting solution was centrifuged (1500 rpm) at 4° C. for 10 minutes to obtain a supernatant which was designated as "PRP (platelet rich plasma)". The remaining residue was centrifuged (3000 rpm) at 4° C. for 10 minutes to obtain a supernatant which was designated as "PPP (platelet poor plasma)". A stirrer bar and PRP (267 μl) were inserted in a cell and PPP (more than 300 μl) was charged in another cell. A transmissivity to PRP and PPP was measured and set as "0%" for the former case and as "100%" for the latter case.
After a preincubation for 1 minute, a compound to be tested was added by 3 μl and then an agglutination causing substance (collagen or ADP) was added by 30 μl at a time lapsed of 1 minute from the addition of testing compound. For a control group, 3 μl of dimethylsulfoxide was added, instead of the testing compound. A maximum value in transmissivity change after the addition of agglutination causing substance was determined and made as a platelet agglutination rate (%).

[1] = 10^-4 (M), right atrium, 32°±1° C.
[2] = 10^-5 (M), right atrium, 32°±1° C.
[3] = contraction by KCl 2.5×10^-2 M, 37° C., read-out: IC50 KCl contraction (50% relaxing)
[4] = contraction by norepinephrine 10^-6 g/ml, 37° C., read-out: IC50 N.E. contraction (50% relaxing)
[5] = 10^-5 (M), left atrium, 32°±1° C.
[6] = Cavia porcellus, 10^-4 (M), left atrium, 32°±1° C., read-out: Contraction
[7] = agglutination caused by collagen, read-out: IC50 Collagen
[8] = Cavia porcellus, read-out: Contraction
[9] = agglutination caused by ADP, N.D. : not detected, read-out: IC50 ADP

Structure (SMILES)	Pulsation (right atrium; [2])	IC50 (thoracic aorta; [3]) [µM]	IC50 (thoracic aorta; [4]) [µM]	Contraction (left atrium; [5])	inhibition at 100 µM (left atrium; [6]) [%]	IC50 (aldose reductase) [µM]	IC50 (platelet; [7]) [µM]	inhibition at 100 µM (right atrium; [1]) [%]	other results
COc1cc(C=CC(=O)N2CCN(CCNC(=O)[C@@H]3C[C@]4(NC(=O)NC4=O)c4cc(F)ccc4O3)CC2)cc(OC)c1OC [Example 12, (2S,4S)-N-{2-[4-(3,4,5-Trimethoxycinnamoyl)piperazin-1-yl]ethyl}-6-fluoro-2',5'-dioxospiro[chroman-4,4'-imidazolidine]-2-carboxamide]	-	160	30	-	10 to 20	0.15			Pulsation (right atrium; [1]): -
COc1ccc(NNC(=O)[C@@H]2C[C@]3(NC(=O)NC3=O)c3cc(F)ccc3O2)cc1 [Example 5, (2S,4S)-6-Fluoro-2',5'-dioxospiro[chroman-4,4'-imidazolidine]-2-(N'-4-methoxyphenyl)carbohydrazide]	-	5	30	-	10 to 20	0.044	26		Pulsation (right atrium; [1]): -
CC(=O)Oc1ccccc1C(=O)O [Aspirin, reference compound]							210		
CC(C)NCC(O)COc1cccc2ccccc12 (stereo not drawn) [A, Propranolol, reference compound]									inhibition at 10 µM (right atrium): > 20%; inhibition at 100 µM (right atrium): > 20%; inhibition at 10 µM (left atrium; [8]): > 20%; inhibition at 100 µM (left atrium; [8]): > 20%
COc1ccccc1N1CCN(CCNC(=O)[C@@H]2C[C@]3(NC(=O)NC3=O)c3cc(F)ccc3O2)CC1 [Example 9, (2S,4S)-N-{2-[4-(2-Methoxyphenyl)piperazin-1-yl]ethyl}-6-fluoro-2',5'-dioxospiro[chroman-4,4'-imidazolidine]-2-carboxamide]	-	> 1000	> 1000	-	10 to 20	0.24	660		Pulsation (right atrium; [1]): -
CNNC(=O)[C@@H]1C[C@]2(NC(=O)NC2=O)c2cc(F)ccc2O1 [Example 2, (2S,4S)-6-Fluoro-2',5'-dioxospiro[chroman-4,4'-imidazolidine]-2-(N'-methyl)carbohydrazide]		> 1000	> 1000			0.3			
O=C1NC(=O)[C@@]2(C[C@@H](C(=O)NCCN3CCC(Cc4ccccc4)CC3)Oc3ccc(F)cc32)N1 [Example 11, (2S,4S)-N-[2-(4-Benzylpiperidin-1-yl)ethyl]-6-fluoro-2'5'-dioxospiro[chroman-4,4'-imidazolidine]-2-carboxamide]		1.9	0.1	-	10 to 20	1.9	83	> 20	IC50 (platelet; [9]): 370 µM; inhibition at 10 µM (right atrium; [2]): 10 to 20%
O=C1NC(=O)[C@@]2(C[C@@H](C(=O)NCCN3CCN(C(c4ccccc4)c4ccccc4)CC3)Oc3ccc(F)cc32)N1 [Example 10, (2S,4S)-N-{2-[4-(Diphenylmethyl)piperazin-1-yl]ethyl}-6-fluoro-2',5'-dioxospiro[chroman-4,4'-imidazolidine]-2-carboxamide]		1.8	100	-		0.15	410	> 20	IC50 (platelet; [9]): 700 µM; inhibition at 10 µM (right atrium; [2]): 10 to 20%; Contraction (left atrium; 10^-4 (M), left atrium, 32°±1° C.): -
O=C1NC(=O)[C@@]2(C[C@@H](C(=O)NNc3cccc4ccccc34)Oc3ccc(F)cc32)N1 [Example 6, (2S,4S)-6-Fluoro-2',5'-dioxospiro[chroman-4,4'-imidazolidine]-2-(N'-1-naphthyl)carbohydrazide]	-			-	10 to 20	0.013	230	10 to 20	
O=C1NC(=O)[C@@]2(C[C@@H](C(=O)NCCn3ccnc3)Oc3ccc(F)cc32)N1 [Example 14, (2S,4S)-N-{2-[(Imidazol-1-yl)ethyl]}-6-fluoro-2',5'-dioxospiro[chroman-4,4'-imidazolidine]-2-carboxamide]		> 1000	> 1000			0.65			
COc1ccc2c(c1)c(CC(=O)O)c(C)n2C(=O)c1ccc(Cl)cc1 [Indomethacin, reference compound]							68		
O=C1NC(=O)[C@@]2(C[C@@H](C(=O)NNc3ccccc3)Oc3ccc(F)cc32)N1 [Example 3, (2S,4S)-6-Fluoro-2',5'-dioxospiro[chroman-4,4'-imidazolidine]-2-(N'-phenyl)carbohydrazide]	-	30	0.8	-	10 to 20	0.022	140		Pulsation (right atrium; [1]): -
O=C1NC(=O)[C@@]2(C[C@@H](C(=O)NCCO[N+](=O)[O-])Oc3ccc(F)cc32)N1 [Example 13, (2S, 4S)-N-(2-Nitroxyethyl)-6-fluoro-2',5'-dioxospiro[chroman-4,4'-imidazolidine]-2-carboxamide]		60	20			0.19	240		
NNC(=O)[C@@H]1C[C@]2(NC(=O)NC2=O)c2cc(F)ccc2O1 [Example 1, (2S,4S)-6-Fluoro-2',5'-dioxospiro[chroman-4,4'-imidazolidine]-2-carbohydrazide]		95	2			0.038			
O=C1NC(=O)[C@@]2(C[C@@H](C(=O)NO)Oc3ccc(F)cc32)N1 [Example 7, (2S,4S)-6-Fluoro-2',5'-dioxospiro[chroman-4,4'-imidazolidine]-2-hydroxamic acid]		> 1000	> 1000			0.037			
O=C1NC(=O)[C@@]2(C[C@@H](C(=O)NNc3ccc(Cl)cc3)Oc3ccc(F)cc32)N1 [Example 4, (2S,4S)-6-Fluoro-2',5'-dioxospiro[chroman-4,4'-imidazolidine]-2-(N'-4-chlorophenyl)carbohydrazide]	-	> 1000	> 1000	-	10 to 20	0.026	180	10 to 20	
O=C1NC(=O)[C@@]2(C[C@@H](C(=O)NCCN3CCN(CC=Cc4ccccc4)CC3)Oc3ccc(F)cc32)N1 [Example 8, (2S,4S)-N-[2-(4-Cinnamylpiperazin-1-yl)ethyl]-6-fluoro-2',5'-dioxospiro[chroman-4,4'-imidazolidine]-2-carboxamide]	-	> 1000	> 1000	-	10 to 20	0.22	250	10 to 20	
COc1cc(/C=C/C(=O)N2CCN(CC(=O)N3CCCC3)CC2)cc(OC)c1OC [Cinepazide, reference compound]									IC50 (thoracic aorta; read-out: IC50 KCl contraction (50% relaxing)): 2000 µM; IC50 (thoracic aorta; read-out: IC50 N.E. contraction (50% relaxing)): 1000 µM
CC(C(O)c1ccc(O)cc1)N1CCC(Cc2ccccc2)CC1 (stereo not drawn) [B, Ifenprodil, reference compound]				-	10 to 20			> 20	inhibition at 10 µM (right atrium; [2]): > 20%
